# Patent US6723343B2, “Pharmaceutical tramadol salts” (Gruenenthal GmbH, priority 1999, dated 2004)
# Settings: deionized water, 25° C., stirred for 20 hours, HPLC against tramadol hydrochloride as standard
# Description: The solubility of the salts of tramadol and a sugar substitute was determined as follows:
# The requisite amount of the salt of tramadol and the appropriate sugar substitute can optionally be determined by preliminary experiments.
# After the undissolved salt of tramadol and the appropriate sugar substitute had been allowed to settle out, the clear supernatant was pipetted off and centrifuged for 5 minutes at a speed of at least 3000 rpm. Part of the resulting clear supernatant is transferred to an HPLC sample vial and the concentration of the salt of tramadol and the appropriate sugar substitute is determined against tramadol hydrochloride as standard.
smiles,measurement,value
COc1cccc(C2(O)CCCCC2CN(C)C)c1.O=C1NS(=O)(=O)c2ccccc21 (stereo not shown) [tramadol saccharinate],solubility in water,22.5 mg/mL
